ChEMBL document CHEMBL2375343, “(4-Phenoxyphenyl)tetrazolecarboxamides and related compounds as dual inhibitors of fatty acid amide hydrolase (FAAH) and monoacylglycerol lipase (MAGL)” (Eur J Med Chem, 2013)
The source made the active and inactive calls. The rule behind the calls is not given here.

Tests used:
[1] = molecular target: T1, Fatty-acid amide hydrolase 1 (Rattus norvegicus) (UniProt P97612); test: Inhibition of FAAH in Sprague-Dawley rat brain microsomes assessed as N-(2-hydroxyethyl)-4-pyren-1-ylbutanamide conversion to 4-pyren-1-ylbutanoic acid at 10 uM preincubated for 10 mins measured after 45 mins by HPLC analysis relative to control
T1 sequence (whole entry): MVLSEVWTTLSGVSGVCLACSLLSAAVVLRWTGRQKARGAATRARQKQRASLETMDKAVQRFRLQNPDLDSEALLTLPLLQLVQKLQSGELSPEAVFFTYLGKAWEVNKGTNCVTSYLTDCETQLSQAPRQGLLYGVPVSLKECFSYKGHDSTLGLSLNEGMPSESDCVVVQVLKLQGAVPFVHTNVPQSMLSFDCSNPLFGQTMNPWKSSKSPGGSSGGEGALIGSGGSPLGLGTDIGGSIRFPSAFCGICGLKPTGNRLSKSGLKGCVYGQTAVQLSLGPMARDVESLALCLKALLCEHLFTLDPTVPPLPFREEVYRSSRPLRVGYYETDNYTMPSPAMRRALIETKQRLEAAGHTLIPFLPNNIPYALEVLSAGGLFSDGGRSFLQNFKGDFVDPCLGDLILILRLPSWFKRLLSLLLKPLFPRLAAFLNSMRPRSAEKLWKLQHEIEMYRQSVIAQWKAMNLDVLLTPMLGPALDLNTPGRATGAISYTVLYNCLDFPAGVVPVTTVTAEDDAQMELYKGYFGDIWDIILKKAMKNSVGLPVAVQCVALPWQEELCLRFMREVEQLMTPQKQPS

[2] = molecular target: T2, Monoglyceride lipase (Homo sapiens) (UniProt Q99685); test: Inhibition of human recombinant MAGL-mediated 1,3-dihydroxypropan-1-yl 4-pyren-1-ylbutanoate conversion to 4-pyren-1-ylbutanoic acid at 10 uM preincubated for 15 mins measured after 45 mins by HPLC analysis relative to control
T2 sequence (whole entry): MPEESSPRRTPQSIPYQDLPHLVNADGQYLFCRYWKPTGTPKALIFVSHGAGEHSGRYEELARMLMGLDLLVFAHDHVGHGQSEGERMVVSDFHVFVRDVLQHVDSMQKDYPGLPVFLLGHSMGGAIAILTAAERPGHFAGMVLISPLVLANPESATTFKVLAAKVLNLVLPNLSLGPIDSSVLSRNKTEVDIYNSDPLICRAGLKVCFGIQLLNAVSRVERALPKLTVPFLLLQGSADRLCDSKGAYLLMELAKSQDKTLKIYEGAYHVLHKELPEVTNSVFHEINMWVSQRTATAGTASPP

[3] = molecular target: T3, Fatty-acid amide hydrolase 1 (Rattus norvegicus, UniProt P97612); test: Inhibition of FAAH in Sprague-Dawley rat brain microsomes assessed as N-(2-hydroxyethyl)-4-pyren-1-ylbutanamide conversion to 4-pyren-1-ylbutanoic acid preincubated for 10 mins measured after 45 mins by HPLC analysis
T3 sequence (P97612 whole entry): T1 sequence (whole entry)

Sus scrofa = species: Sus scrofa; test: Inhibition of cytosolic phospholipase A2alpha in porcine platelets assessed as 1-stearoyl-2-arachidonoyl-sn-glycero-3-phosphocholine conversion to arachidonic acid at 10 uM by HPLC analysis
[4] = Selectivity ratio of IC50 for human recombinant MAGL to IC50 for FAAH in Sprague-Dawley rat brain microsomes; details: Microsome
Monoglyceride lipase [5] = molecular target: T4, Monoglyceride lipase (Homo sapiens, UniProt Q99685); test: Inhibition of human recombinant MAGL-mediated 1,3-dihydroxypropan-1-yl 4-pyren-1-ylbutanoate conversion to 4-pyren-1-ylbutanoic acid preincubated for 15 mins measured after 45 mins by HPLC analysis
T4 sequence (Q99685 whole entry): T2 sequence (whole entry)

Monoglyceride lipase [6] = molecular target: T4, Monoglyceride lipase; test: Inhibition of human MAGL expressed in Escherichia coli using 6-methoxy-4-methylcoumarin ester as substrate after 3 hrs by mass spectroscopic analysis
Monoglyceride lipase [7] = molecular target: T5, Monoglyceride lipase (Rattus norvegicus, UniProt Q8R431); test: Inhibition of MAGL in rat cerebellar membranes; type: cell membranes, Membrane
T5 sequence (Q8R431 whole entry): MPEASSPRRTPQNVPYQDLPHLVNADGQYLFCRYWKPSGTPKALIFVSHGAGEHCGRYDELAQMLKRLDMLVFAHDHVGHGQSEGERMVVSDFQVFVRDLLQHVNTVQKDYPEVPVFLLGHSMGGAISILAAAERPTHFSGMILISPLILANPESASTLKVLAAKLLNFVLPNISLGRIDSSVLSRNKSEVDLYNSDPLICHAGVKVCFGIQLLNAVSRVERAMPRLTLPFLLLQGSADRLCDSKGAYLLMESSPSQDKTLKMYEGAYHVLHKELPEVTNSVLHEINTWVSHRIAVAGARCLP

Monoglyceride lipase [8] = molecular target: T5, Monoglyceride lipase; test: Inhibition of rat MAGL expressed in monkey COS7 cells; type: cell-based, COS-7
[9] = molecular target: T6, Fatty-acid amide hydrolase 1 (Homo sapiens, UniProt O00519); test: Inhibition of FAAH (unknown origin)
T6 sequence (O00519 whole entry): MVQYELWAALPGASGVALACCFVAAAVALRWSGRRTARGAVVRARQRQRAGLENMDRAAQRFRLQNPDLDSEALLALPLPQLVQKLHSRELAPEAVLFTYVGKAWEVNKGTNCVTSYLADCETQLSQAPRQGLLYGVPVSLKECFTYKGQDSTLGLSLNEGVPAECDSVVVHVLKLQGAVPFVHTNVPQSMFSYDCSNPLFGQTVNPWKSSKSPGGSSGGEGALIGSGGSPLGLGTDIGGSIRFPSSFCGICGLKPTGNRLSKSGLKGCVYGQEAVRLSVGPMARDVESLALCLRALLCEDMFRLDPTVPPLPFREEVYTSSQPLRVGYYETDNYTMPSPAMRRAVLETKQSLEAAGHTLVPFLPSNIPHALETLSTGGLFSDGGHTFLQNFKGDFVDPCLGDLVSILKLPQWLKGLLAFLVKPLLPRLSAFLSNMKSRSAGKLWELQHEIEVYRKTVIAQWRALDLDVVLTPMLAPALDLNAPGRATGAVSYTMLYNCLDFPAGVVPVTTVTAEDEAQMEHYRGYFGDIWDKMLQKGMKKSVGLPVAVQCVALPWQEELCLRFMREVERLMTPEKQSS

Monoglyceride lipase [10] = molecular target: T4, Monoglyceride lipase; test: Inhibition of MAGL (unknown origin)
[11] = Metabolic stability in Wistar rat liver S9 fraction at 20 uM after 30 mins by HPLC analysis; type: ADME, subcellular; details: read-out: Stability
Monoglyceride lipase [12] = molecular target: T4, Monoglyceride lipase; test: Inhibition of MAGL (unknown origin) using 4-nitrophenylacetate as substrate

For `O=C1N=C(O)S/C1=C\c1ccc(Oc2ccccc2)cc1`, the inhibition [1] was “inactive” and the inhibition [2] was “inactive”.
`Cc1cccc(Oc2ccc(-c3nnn(C(=O)N(C)C)n3)cc2)c1` showed an IC50 [3] of 13 nM.
`CN(C)C(=O)n1nnc(-c2ccc(Oc3cccc(Cl)c3)cc2)n1` gave an IC50 [3] of 9 nM.
`CN(C)C(=O)n1nnc(-c2ccc(Oc3ccc(Cl)cc3)cc2)n1` gave an IC50 [3] of 16 nM.
In the case of `CN(C)C(=O)n1nnnc1-c1ccc(Oc2ccccc2)cc1`, the inhibition (Sus scrofa) is reported as “inactive” and the IC50 [3] is reported as 7 nM.
Compound `CN(C)C(=O)n1nnc(-c2ccc(-n3ccc4ccccc43)cc2)n1` has an IC50 [3] of 12 nM.
In the case of `COc1ccc(Oc2ccc(-c3nnn(C(=O)N(C)C)n3)cc2)cc1`, the IC50 [3] is reported as 13 nM.
`Cc1ccc(Oc2ccc(-c3nnn(C(=O)N(C)C)n3)cc2)cc1` gave an IC50 [3] of 24 nM.
In the case of `CN(C)C(=O)n1nnnc1Cc1ccc(-c2ccccc2)cc1`, the inhibition (Sus scrofa) is reported as “inactive”, the Ratio IC50 [4] is reported as 60 and the IC50 [3] is reported as 5 nM. For the same compound, the IC50 (Monoglyceride lipase [5]) was 290 nM.
`CCCCC/C=C\C/C=C\C/C=C\C/C=C\CCCCN1C(=O)C=CC1=O` showed an IC50 (Monoglyceride lipase [6]) of 2800 nM, an IC50 (Monoglyceride lipase [7]) of 140 nM and an inhibition [1] of 38%. The inhibition [2] was “inactive”.
For `O=C1NCC(c2ccc(Oc3ccccc3)cc2)O1` (configuration not stated), the inhibition [1] was “inactive” and the inhibition [2] was “inactive”.
`CCCCCC(=O)c1cc(C)n(-c2ccc(-c3nnn(C(=O)N(C)C)n3)cc2)c1C` gave an IC50 [3] of 11 nM.
In the case of `O=C(NC1CCCCC1)N1CC(c2ccc(Oc3ccccc3)cc2)OC1=O` (configuration not stated), the inhibition [1] is reported as “inactive” and the inhibition [2] is reported as “inactive”.
In the case of `O=C(Oc1ccc([N+](=O)[O-])cc1)N1CCC(C(O)(c2ccc3c(c2)OCO3)c2ccc3c(c2)OCO3)CC1`, the IC50 (Monoglyceride lipase [8]) is reported as 25 nM and the inhibition [1] is reported as “inactive”.
With `CN(C)C(=O)n1nnc(-c2ccc(-n3cccn3)cc2)n1` the IC50 [3] was 8 nM.
`Cc1cc(C(=O)c2ccc(-c3ccccc3)cc2)c(C)n1-c1ccc(-c2nnn(C(=O)N(C)C)n2)cc1` gave an IC50 [3] of 40 nM.
In the case of `CN(C)C(=O)n1nnc(Cc2ccc(Oc3ccccc3)cc2)n1`, the inhibition (Sus scrofa) is reported as “inactive” and the IC50 [3] is reported as 9 nM.
In the case of `CN(C)C(=O)n1nnnc1Cc1ccc(Oc2ccccc2)cc1`, the inhibition (Sus scrofa) is reported as “inactive” and the IC50 [3] is reported as 6 nM.
In the case of `CN(C)C(=O)n1nnc(-c2ccc(Oc3ccc(F)cc3)cc2)n1`, the IC50 [3] is reported as 14 nM.
`Cc1cc(C(=O)c2ccccc2)c(C)n1-c1ccc(-c2nnn(C(=O)N(C)C)n2)cc1` showed an IC50 [3] of 16 nM.
`COc1nn(-c2ccc(Oc3ccccc3)cc2)c(=O)o1` gave an IC50 [9] of 65 nM, an IC50 (Monoglyceride lipase [10]) of 78 nM and an IC50 [3] of 720 nM. It also gave an IC50 (Monoglyceride lipase [5]) of 310 nM.
With `CN(C)C(=O)n1nnc(-c2ccc(Oc3ccc(Cl)c(Cl)c3)cc2)n1` the IC50 [3] was 11 nM.
In the case of `O=C1C=CC(=O)N1Cc1ccc(Oc2ccccc2)cc1`, the inhibition [2] is reported as 44%, the IC50 [3] is reported as 4900 nM and the IC50 (Monoglyceride lipase [5]) is reported as > 10000 nM.
With `O=C(CCCCCc1ccccc1)c1nc2ncccc2o1` the inhibition [2] was “inactive” and the IC50 [3] was 4 nM.
`O=C1C=CC(=O)N1c1ccc(Oc2ccccc2)cc1` gave an IC50 [3] of 5300 nM.
For `O=c1[nH]c(-c2ccc(Oc3ccccc3)cc2)no1`, the inhibition [1] was “inactive” and the inhibition [2] was “inactive”.
Work on `CN(C)C(=O)n1nnc(-c2ccc(Cn3ccc4ccccc43)cc2)n1` yielded an IC50 [3] of 88 nM.
With `CC(C)N(C(=O)n1nnc(-c2ccc(Oc3ccccc3)cc2)n1)C(C)C` the remaining at 0.5 h, 20 µM [11] was 27%, the inhibition [1] was 17% and the inhibition [2] was “inactive”. The IC50 [3] was > 10000 nM.
For `CN(C)C(=O)n1nnc(-c2ccc(Cn3cccc3)cc2)n1`, the IC50 [3] was 11 nM.
Compound `COc1cccc(Oc2ccc(-c3nnn(C(=O)N(C)C)n3)cc2)c1` has an IC50 [3] of 15 nM.
In the case of `Cc1ccc(C)n1-c1ccc(-c2nnn(C(=O)N(C)C)n2)cc1`, the IC50 [3] is reported as 9 nM.
For `CN(C)C(=O)n1nnc(Cc2ccc(-c3ccccc3)cc2)n1`, the inhibition (Sus scrofa) was “inactive”, the IC50 [3] was 12 nM and the IC50 (Monoglyceride lipase [5]) was 6 nM.
In the case of `CCN(CC)C(=O)n1nnc(-c2ccc(Oc3ccccc3)cc2)n1`, the remaining at 0.5 h, 20 µM [11] is reported as 0% and the IC50 [3] is reported as 37 nM.
`CN(C)C(=O)n1nnc(-c2ccc(Oc3cccc(F)c3)cc2)n1` gave an IC50 [3] of 10 nM.
For `CN(C)C(=O)n1nnc(-c2ccc(Oc3ccccc3)cc2)n1`, the inhibition (Sus scrofa) was “inactive”, the remaining at 0.5 h, 20 µM [11] was 0% and the IC50 [3] was 12 nM.
In the case of `CN(C)C(=O)n1nnc(-c2ccc(-n3cccc3)cc2)n1`, the IC50 [3] is reported as 5 nM.
In the case of `Cc1cc(C(=O)C(C)(C)C)c(C)n1-c1ccc(-c2nnn(C(=O)N(C)C)n2)cc1`, the IC50 [3] is reported as 29 nM.
`CC(=O)c1cc(C)n(-c2ccc(-c3nnn(C(=O)N(C)C)n3)cc2)c1C` showed an IC50 [3] of 9 nM.
`COc1nn(-c2ccc(NC(=O)OCc3ccccc3)c(C)c2)c(=O)o1` gave an IC50 [9] of 76 nM, an IC50 (Monoglyceride lipase [10]) of 92 nM and an IC50 [3] of 1300 nM. It also gave an IC50 (Monoglyceride lipase [5]) of 480 nM and an IC50 (Monoglyceride lipase [12]) of 400 nM.
For `Cc1ccc(C)n1Cc1ccc(-c2nnn(C(=O)N(C)C)n2)cc1`, the IC50 [3] was 140 nM.
